The target in the first experiment is CDK5 CDK5R1 p35 (human) (UniProt Q00535+Q15078). The experiment in a line: radiometric filter-binding kinase assay, Kinase HotSpot. Conditions: compound 0.5 µM; ATP 10 µM.
Sequence of KDR (human) (P35968 whole entry, looked up): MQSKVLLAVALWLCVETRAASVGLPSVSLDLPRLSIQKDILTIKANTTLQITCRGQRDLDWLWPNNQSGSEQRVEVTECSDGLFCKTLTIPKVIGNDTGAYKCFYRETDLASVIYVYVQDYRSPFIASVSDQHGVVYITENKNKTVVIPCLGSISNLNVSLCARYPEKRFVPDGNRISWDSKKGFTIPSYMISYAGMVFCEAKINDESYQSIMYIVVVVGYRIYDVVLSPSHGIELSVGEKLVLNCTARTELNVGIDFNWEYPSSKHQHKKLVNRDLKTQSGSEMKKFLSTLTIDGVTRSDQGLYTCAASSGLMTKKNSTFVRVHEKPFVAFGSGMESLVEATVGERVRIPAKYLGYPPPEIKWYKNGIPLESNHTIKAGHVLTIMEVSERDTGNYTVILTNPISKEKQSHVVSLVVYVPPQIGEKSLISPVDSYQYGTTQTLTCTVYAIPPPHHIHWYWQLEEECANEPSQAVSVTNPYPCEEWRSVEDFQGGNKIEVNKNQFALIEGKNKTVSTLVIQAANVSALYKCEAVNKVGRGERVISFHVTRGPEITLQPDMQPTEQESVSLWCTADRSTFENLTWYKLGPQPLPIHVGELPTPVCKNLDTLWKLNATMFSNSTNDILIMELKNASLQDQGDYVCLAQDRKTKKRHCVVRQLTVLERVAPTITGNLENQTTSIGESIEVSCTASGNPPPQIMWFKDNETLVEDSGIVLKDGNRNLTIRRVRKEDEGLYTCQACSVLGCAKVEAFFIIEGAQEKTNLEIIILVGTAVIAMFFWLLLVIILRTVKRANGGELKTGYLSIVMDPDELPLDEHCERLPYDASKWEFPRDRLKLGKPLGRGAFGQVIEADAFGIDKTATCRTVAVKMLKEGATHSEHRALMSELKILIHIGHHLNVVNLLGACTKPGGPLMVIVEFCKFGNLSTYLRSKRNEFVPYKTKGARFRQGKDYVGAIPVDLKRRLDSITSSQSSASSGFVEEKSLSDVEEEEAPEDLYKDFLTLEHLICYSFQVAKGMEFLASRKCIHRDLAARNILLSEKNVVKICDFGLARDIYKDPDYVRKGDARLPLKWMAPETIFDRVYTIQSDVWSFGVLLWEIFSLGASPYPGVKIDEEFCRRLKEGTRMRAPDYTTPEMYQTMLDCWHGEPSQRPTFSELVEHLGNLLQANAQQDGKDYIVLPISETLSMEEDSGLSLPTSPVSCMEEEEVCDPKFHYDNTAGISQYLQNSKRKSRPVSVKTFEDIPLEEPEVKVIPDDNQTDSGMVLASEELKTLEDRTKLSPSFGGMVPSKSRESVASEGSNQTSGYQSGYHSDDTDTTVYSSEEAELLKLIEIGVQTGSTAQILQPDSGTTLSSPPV
Sequence of MST1R (human) (Q04912 whole entry, looked up): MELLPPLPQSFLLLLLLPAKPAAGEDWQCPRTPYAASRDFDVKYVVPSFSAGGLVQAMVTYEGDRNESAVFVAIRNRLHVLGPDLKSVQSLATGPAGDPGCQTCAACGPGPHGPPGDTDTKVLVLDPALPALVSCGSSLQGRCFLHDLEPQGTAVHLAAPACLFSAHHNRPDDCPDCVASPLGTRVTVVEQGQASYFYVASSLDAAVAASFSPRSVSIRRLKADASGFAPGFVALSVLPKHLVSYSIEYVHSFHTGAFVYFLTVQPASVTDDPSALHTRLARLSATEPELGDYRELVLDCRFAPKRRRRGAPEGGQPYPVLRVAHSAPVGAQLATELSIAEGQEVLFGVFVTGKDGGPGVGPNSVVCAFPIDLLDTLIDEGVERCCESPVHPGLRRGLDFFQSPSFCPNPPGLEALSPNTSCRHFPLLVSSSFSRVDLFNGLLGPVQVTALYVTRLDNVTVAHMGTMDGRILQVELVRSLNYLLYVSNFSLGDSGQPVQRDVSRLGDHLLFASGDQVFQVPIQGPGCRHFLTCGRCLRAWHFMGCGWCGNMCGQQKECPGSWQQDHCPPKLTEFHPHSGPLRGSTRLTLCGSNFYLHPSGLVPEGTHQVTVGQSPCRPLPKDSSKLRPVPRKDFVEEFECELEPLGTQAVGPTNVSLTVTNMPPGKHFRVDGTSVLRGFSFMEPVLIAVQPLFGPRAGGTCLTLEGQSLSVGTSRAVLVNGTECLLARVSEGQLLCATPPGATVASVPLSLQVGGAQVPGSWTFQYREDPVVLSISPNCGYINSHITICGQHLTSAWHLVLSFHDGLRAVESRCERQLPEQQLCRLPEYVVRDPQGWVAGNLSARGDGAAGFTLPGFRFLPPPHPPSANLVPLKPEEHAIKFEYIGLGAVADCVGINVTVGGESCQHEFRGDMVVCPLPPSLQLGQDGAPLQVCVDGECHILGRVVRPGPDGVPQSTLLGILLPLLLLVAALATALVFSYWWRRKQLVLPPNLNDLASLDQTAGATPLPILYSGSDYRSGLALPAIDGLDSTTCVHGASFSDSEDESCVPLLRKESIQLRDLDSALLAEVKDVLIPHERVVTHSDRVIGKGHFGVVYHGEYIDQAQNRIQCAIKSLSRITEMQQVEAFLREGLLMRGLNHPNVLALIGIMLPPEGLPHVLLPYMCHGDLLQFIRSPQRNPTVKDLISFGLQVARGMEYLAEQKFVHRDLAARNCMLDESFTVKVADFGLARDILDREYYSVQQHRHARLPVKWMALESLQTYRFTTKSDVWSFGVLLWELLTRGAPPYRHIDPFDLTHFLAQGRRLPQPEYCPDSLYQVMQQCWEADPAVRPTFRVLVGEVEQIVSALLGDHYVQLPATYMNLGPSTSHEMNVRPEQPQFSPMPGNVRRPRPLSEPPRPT
Turning to `Nc1nnc2[nH]c3ccccc3nc1-2`, the residual activity was 88.7%.

For the compound `Cn1sc(=O)n(Cc2ccccc2)c1=O`, the residual activity was 90.1%.

Regarding `CN(C)C[C@H]1CCn2c(c(C3=C(c4cn(C)c5ccccc45)C(=O)NC3=O)c3ccccc32)C1`, the residual activity was 85.4%.

Another experiment addresses DAPK3 (human) (UniProt O43293). The description is as above. Conditions: compound 0.5 µM; ATP 10 µM.
`Nc1nnc2[nH]c3ccccc3nc1-2`: the residual activity is 98.2%.

For the compound `Cn1sc(=O)n(Cc2ccccc2)c1=O`, the residual activity was determined as 103%.

For `CN(C)C[C@H]1CCn2c(c(C3=C(c4cn(C)c5ccccc45)C(=O)NC3=O)c3ccccc32)C1`, the residual activity turned out to be 95.2%.

The target in a further experiment is CDK4 CCND1 (human) (UniProt P24385+P11802). The experiment is described as above. Conditions: compound 0.5 µM; ATP 10 µM.
Regarding `Nc1nnc2[nH]c3ccccc3nc1-2`, the residual activity amounted to 92.4%.

For `Cn1sc(=O)n(Cc2ccccc2)c1=O`, the residual activity turned out to be 98.2%.

For `CN(C)C[C@H]1CCn2c(c(C3=C(c4cn(C)c5ccccc45)C(=O)NC3=O)c3ccccc32)C1`, the residual activity was 86.9%.

The target of the next experiment is RPS6KA1 KD1 KD2 (human) (UniProt Q15418). The description is as above. Conditions: compound 0.5 µM; ATP 10 µM.
As for `Nc1nnc2[nH]c3ccccc3nc1-2`, the residual activity stood at 97.9%.

For the compound `Cn1sc(=O)n(Cc2ccccc2)c1=O`, the residual activity is 97.6%.

With `CN(C)C[C@H]1CCn2c(c(C3=C(c4cn(C)c5ccccc45)C(=O)NC3=O)c3ccccc32)C1`, the residual activity is 5.9%.

The target in a further experiment is IRAK4 (human) (UniProt Q9NWZ3). Described as above. Conditions: compound 0.5 µM; ATP 10 µM.
Regarding `Nc1nnc2[nH]c3ccccc3nc1-2`, the residual activity came to 94.7%.

With `Cn1sc(=O)n(Cc2ccccc2)c1=O`, the residual activity is 107%.

For `CN(C)C[C@H]1CCn2c(c(C3=C(c4cn(C)c5ccccc45)C(=O)NC3=O)c3ccccc32)C1`, the residual activity came to 107%.

In another experiment the target is CLK3 (human) (UniProt P49761). Described as above. Conditions: compound 0.5 µM; ATP 10 µM.
For `Nc1nnc2[nH]c3ccccc3nc1-2`, the residual activity stood at 94.3%.

With `Cn1sc(=O)n(Cc2ccccc2)c1=O`, the residual activity worked out at 83%.

`CN(C)C[C@H]1CCn2c(c(C3=C(c4cn(C)c5ccccc45)C(=O)NC3=O)c3ccccc32)C1`: the residual activity was determined as 94.7%.

For a further experiment, the target named is PRKCB1 (human) (UniProt P05771). The description is as above. Conditions: compound 0.5 µM; ATP 10 µM.
Sequence of PRKCB1 (human) (P05771 whole entry, looked up): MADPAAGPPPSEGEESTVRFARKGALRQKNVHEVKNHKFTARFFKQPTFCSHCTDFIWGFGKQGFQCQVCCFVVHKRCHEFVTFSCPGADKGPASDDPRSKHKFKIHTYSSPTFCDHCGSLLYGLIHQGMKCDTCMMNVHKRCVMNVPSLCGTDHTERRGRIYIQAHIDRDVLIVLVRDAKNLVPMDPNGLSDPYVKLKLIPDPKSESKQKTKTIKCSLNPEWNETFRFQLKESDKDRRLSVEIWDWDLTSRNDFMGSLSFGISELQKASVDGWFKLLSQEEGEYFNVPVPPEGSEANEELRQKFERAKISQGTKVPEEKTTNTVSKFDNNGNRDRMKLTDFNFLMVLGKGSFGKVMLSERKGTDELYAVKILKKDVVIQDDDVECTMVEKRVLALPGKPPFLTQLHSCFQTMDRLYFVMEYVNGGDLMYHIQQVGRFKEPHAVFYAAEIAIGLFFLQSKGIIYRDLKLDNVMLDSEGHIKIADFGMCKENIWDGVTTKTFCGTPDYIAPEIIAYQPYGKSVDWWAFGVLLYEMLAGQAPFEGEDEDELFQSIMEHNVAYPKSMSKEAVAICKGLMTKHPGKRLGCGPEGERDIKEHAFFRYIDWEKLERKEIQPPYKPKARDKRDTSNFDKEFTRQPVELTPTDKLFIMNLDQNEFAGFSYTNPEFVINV
`Nc1nnc2[nH]c3ccccc3nc1-2`: the residual activity came to 103%.

Take `Cn1sc(=O)n(Cc2ccccc2)c1=O`: the residual activity was determined as 110%.

With `CN(C)C[C@H]1CCn2c(c(C3=C(c4cn(C)c5ccccc45)C(=O)NC3=O)c3ccccc32)C1`, the residual activity came to 3.71%.

The target in another experiment is STK16 (human) (UniProt O75716). The experiment is described as above. The settings on record: compound 0.5 µM; ATP 10 µM.
Sequence of STK16 (human) (O75716 whole entry, looked up): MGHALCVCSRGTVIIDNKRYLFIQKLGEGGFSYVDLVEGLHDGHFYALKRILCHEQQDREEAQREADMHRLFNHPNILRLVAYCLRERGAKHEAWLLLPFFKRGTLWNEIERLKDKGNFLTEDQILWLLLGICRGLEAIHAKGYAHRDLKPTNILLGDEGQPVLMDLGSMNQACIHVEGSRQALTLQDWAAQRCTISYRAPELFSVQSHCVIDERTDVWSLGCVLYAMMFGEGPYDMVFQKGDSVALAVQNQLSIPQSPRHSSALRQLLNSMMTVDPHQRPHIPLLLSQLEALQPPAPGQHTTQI
On to `Nc1nnc2[nH]c3ccccc3nc1-2`, for which the residual activity is 91.9%.

On to `Cn1sc(=O)n(Cc2ccccc2)c1=O`, for which the residual activity stood at 105%.

In the case of `CN(C)C[C@H]1CCn2c(c(C3=C(c4cn(C)c5ccccc45)C(=O)NC3=O)c3ccccc32)C1`, the residual activity turned out to be 109%.

A further experiment deals with JAK1 JH1 catalytic (human) (UniProt P23458). The description is as above. The settings on record: compound 0.5 µM; ATP 10 µM.
Take `Nc1nnc2[nH]c3ccccc3nc1-2`: the residual activity worked out at 99.8%.

For `Cn1sc(=O)n(Cc2ccccc2)c1=O`, the residual activity came to 103%.

`CN(C)C[C@H]1CCn2c(c(C3=C(c4cn(C)c5ccccc45)C(=O)NC3=O)c3ccccc32)C1`: the residual activity stood at 108%.

Another experiment addresses CDK9 CCNK (human) (UniProt O75909+P50750). Described as above. Conditions: compound 0.5 µM; ATP 10 µM.
For `Nc1nnc2[nH]c3ccccc3nc1-2`, the residual activity was 88.3%.

For `Cn1sc(=O)n(Cc2ccccc2)c1=O`, the residual activity turned out to be 97.2%.

On to `CN(C)C[C@H]1CCn2c(c(C3=C(c4cn(C)c5ccccc45)C(=O)NC3=O)c3ccccc32)C1`, for which the residual activity stood at 43.5%.

In the next experiment the target is CAMK2D (human) (UniProt Q13557). The experiment is described as above. Conditions: compound 0.5 µM; ATP 10 µM.
For `Nc1nnc2[nH]c3ccccc3nc1-2`, the residual activity is 89.4%.

`Cn1sc(=O)n(Cc2ccccc2)c1=O`: the residual activity was 98.9%.

Turning to `CN(C)C[C@H]1CCn2c(c(C3=C(c4cn(C)c5ccccc45)C(=O)NC3=O)c3ccccc32)C1`, the residual activity was 82.4%.

The target in another experiment is CAMK2A (human) (UniProt Q9UQM7). The experiment is described as above. Conditions: compound 0.5 µM; ATP 10 µM.
Take `Nc1nnc2[nH]c3ccccc3nc1-2`: the residual activity came out at 99.5%.

For `Cn1sc(=O)n(Cc2ccccc2)c1=O`, the residual activity was determined as 106%.

On to `CN(C)C[C@H]1CCn2c(c(C3=C(c4cn(C)c5ccccc45)C(=O)NC3=O)c3ccccc32)C1`, for which the residual activity amounted to 100%.

The target of the next experiment is EPHB3 (human) (UniProt P54753). The experiment is described as above. Conditions: compound 0.5 µM; ATP 10 µM.
Sequence of EPHB3 (human) (P54753 whole entry, looked up): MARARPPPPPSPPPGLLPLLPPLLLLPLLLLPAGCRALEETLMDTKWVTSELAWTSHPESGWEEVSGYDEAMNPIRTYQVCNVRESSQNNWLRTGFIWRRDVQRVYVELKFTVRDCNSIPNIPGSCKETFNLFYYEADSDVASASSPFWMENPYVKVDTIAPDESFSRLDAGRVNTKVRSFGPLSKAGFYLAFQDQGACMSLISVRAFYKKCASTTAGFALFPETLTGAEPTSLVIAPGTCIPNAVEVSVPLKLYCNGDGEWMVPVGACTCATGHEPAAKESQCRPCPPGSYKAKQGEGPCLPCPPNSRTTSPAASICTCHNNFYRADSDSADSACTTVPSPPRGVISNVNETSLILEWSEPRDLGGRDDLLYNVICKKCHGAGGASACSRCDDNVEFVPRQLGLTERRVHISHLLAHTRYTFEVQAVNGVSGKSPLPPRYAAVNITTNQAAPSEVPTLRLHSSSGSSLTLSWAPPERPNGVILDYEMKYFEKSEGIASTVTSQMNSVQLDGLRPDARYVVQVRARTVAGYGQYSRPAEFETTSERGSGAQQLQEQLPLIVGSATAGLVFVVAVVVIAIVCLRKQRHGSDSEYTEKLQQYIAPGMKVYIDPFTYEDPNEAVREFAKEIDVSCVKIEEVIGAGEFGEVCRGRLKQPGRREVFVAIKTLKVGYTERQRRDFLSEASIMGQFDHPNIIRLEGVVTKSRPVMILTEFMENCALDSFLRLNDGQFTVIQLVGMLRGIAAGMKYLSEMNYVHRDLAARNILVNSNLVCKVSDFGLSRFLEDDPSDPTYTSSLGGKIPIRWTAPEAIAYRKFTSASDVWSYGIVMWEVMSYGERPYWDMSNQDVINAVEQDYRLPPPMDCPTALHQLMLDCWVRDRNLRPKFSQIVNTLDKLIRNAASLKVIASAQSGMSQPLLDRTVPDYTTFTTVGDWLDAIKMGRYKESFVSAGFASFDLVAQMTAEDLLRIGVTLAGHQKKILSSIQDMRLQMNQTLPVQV
Turning to `Nc1nnc2[nH]c3ccccc3nc1-2`, the residual activity came to 90.3%.

In the case of `Cn1sc(=O)n(Cc2ccccc2)c1=O`, the residual activity was found to be 91.3%.

For `CN(C)C[C@H]1CCn2c(c(C3=C(c4cn(C)c5ccccc45)C(=O)NC3=O)c3ccccc32)C1`, the residual activity came out at 105%.

Another experiment addresses HIPK2 (human) (UniProt Q9H2X6). The description is as above. The settings on record: compound 0.5 µM; ATP 10 µM.
Take `Nc1nnc2[nH]c3ccccc3nc1-2`: the residual activity amounted to 95.9%.

In the case of `Cn1sc(=O)n(Cc2ccccc2)c1=O`, the residual activity worked out at 99.6%.

Turning to `CN(C)C[C@H]1CCn2c(c(C3=C(c4cn(C)c5ccccc45)C(=O)NC3=O)c3ccccc32)C1`, the residual activity is 94.1%.

For a further experiment, the target named is ULK1 (human) (UniProt O75385). The experiment is described as above. Conditions: compound 0.5 µM; ATP 10 µM.
Turning to `Nc1nnc2[nH]c3ccccc3nc1-2`, the residual activity was found to be 106%.

Take `Cn1sc(=O)n(Cc2ccccc2)c1=O`: the residual activity was determined as 98.9%.

In the case of `CN(C)C[C@H]1CCn2c(c(C3=C(c4cn(C)c5ccccc45)C(=O)NC3=O)c3ccccc32)C1`, the residual activity turned out to be 98.9%.

Another experiment concerns the target KDR (human) (UniProt P35968). The description is as above. The settings on record: compound 0.5 µM; ATP 10 µM.
On to `Nc1nnc2[nH]c3ccccc3nc1-2`, for which the residual activity came to 95.8%.

On to `Cn1sc(=O)n(Cc2ccccc2)c1=O`, for which the residual activity was 89.4%.

Regarding `CN(C)C[C@H]1CCn2c(c(C3=C(c4cn(C)c5ccccc45)C(=O)NC3=O)c3ccccc32)C1`, the residual activity turned out to be 101%.

For the next experiment, the target named is ZAP70 (human) (UniProt P43403). The description is as above. Conditions: compound 0.5 µM; ATP 10 µM.
As for `Nc1nnc2[nH]c3ccccc3nc1-2`, the residual activity turned out to be 102%.

For the compound `Cn1sc(=O)n(Cc2ccccc2)c1=O`, the residual activity is 102%.

Consider `CN(C)C[C@H]1CCn2c(c(C3=C(c4cn(C)c5ccccc45)C(=O)NC3=O)c3ccccc32)C1`, for which the residual activity was 105%.

The target in the next experiment is PASK (human) (UniProt Q96RG2). The description is as above. Conditions: compound 0.5 µM; ATP 10 µM.
Take `Nc1nnc2[nH]c3ccccc3nc1-2`: the residual activity was 93.7%.

For the compound `Cn1sc(=O)n(Cc2ccccc2)c1=O`, the residual activity came to 101%.

Turning to `CN(C)C[C@H]1CCn2c(c(C3=C(c4cn(C)c5ccccc45)C(=O)NC3=O)c3ccccc32)C1`, the residual activity was found to be 93%.

In the next experiment the target is SRMS (human) (UniProt Q9H3Y6). The experiment is described as above. The settings on record: compound 0.5 µM; ATP 10 µM.
Turning to `Nc1nnc2[nH]c3ccccc3nc1-2`, the residual activity was determined as 88.5%.

As to `Cn1sc(=O)n(Cc2ccccc2)c1=O`, the residual activity stood at 96.2%.

With `CN(C)C[C@H]1CCn2c(c(C3=C(c4cn(C)c5ccccc45)C(=O)NC3=O)c3ccccc32)C1`, the residual activity was determined as 109%.

Another experiment concerns the target INSR (human) (UniProt P06213). The description is as above. Conditions: compound 0.5 µM; ATP 10 µM.
As for `Nc1nnc2[nH]c3ccccc3nc1-2`, the residual activity stood at 95.3%.

For the compound `Cn1sc(=O)n(Cc2ccccc2)c1=O`, the residual activity amounted to 93.7%.

Turning to `CN(C)C[C@H]1CCn2c(c(C3=C(c4cn(C)c5ccccc45)C(=O)NC3=O)c3ccccc32)C1`, the residual activity was found to be 88%.

A further experiment has as its target MST1R (human) (UniProt Q04912). The experiment is described as above. The settings on record: compound 0.5 µM; ATP 10 µM.
`Nc1nnc2[nH]c3ccccc3nc1-2`: the residual activity was determined as 105%.

As to `Cn1sc(=O)n(Cc2ccccc2)c1=O`, the residual activity came to 101%.

For `CN(C)C[C@H]1CCn2c(c(C3=C(c4cn(C)c5ccccc45)C(=O)NC3=O)c3ccccc32)C1`, the residual activity amounted to 98.3%.

The values above are taken from the kinase profiling compilation of Christmann-Franck et al. (2016).
